Entries after “also recorded” stand apart in the source; their conditions may differ. Where two headings read alike, the source gives them in different places.
Experiments:
[1] = system: platelet counts / host toxicity; assay: DFMO toxicity, continuous i.v. infusion for 12 days in rats (FIG. 3); type: in vivo
Description: FIG. 3. […] Bars indicate standard deviation.
In the above described rat model, a continuous infusion of DFMO was given through a central venous catheter.

[2] = system: DFMO-induced thrombocytopenia; settings: rat, in vivo
[3] = system: platelet counts / host toxicity; set-up: species or system human (patients with advanced colorectal carcinoma); settings: human, in vivo
Description: FIG. 4. Platelet counts plotted against days of continuous i.v. DFMO infusion in patients with advanced colorectal carcinoma. […] The paired points are connected by a straight line.
There was no incidence of nausea, vomiting or diarrhea.

MCA sarcoma = assay: DFMO effect on growth of MCA sarcoma; type: in vivo
[4] = system: polyamine levels (erythrocyte and tumor); assay: RBC and tumor polyamine levels in tumor-bearing rats infused with amino acid solutions (Example II, Table IV); type: in vivo, male Fisher 344 rats; settings: infusion alone, not in combination with essential amino acids; experimental tumor system
Description: A methylcholanthrene-induced fibrosarcoma (0.17 g) was implanted as a brei into the right flank under anesthesia and the animals were fed a chow diet for 21 days. When the tumors were at least 1.0 cm in width, two-dimensional measurements with calipers were instituted and the equation, length (cm)×(width [cm])^2 ×1/2=grams of tumor tissue, was used to estimate tumor weight. […] The animals were then allowed to recover overnight and continuous infusions were started the next morning. […] Nephramine is a parenteral amino acid solution consisting of eight essential amino acids and histidine. After 6 days of continuous infusion, the animals were sacrificed by aortic bleeding. Liver and tumor were excised and weighed and kept frozen at -70° C. until assays were done. Only viable, nonnecrotic tumor tissue was saved and assayed.
Preparation of tumor tissue for polyamine assay was done in the following manner. Tumor tissue weighing 0.5 to 1.5 g was cut into small pieces and put into a disposable tube (16×100 mm). Ice-cold 4% sulfosalicylic acid was then added at 2 ml/g wet tissue. This mixture was homogenized in an ice bath for 40 seconds using the Brinkman Polytron homogenizer (P10ST generator set at 8.5). The suspension was centrifuged at 100,000 g for 30 minutes and the resulting clear supernatant was analyzed for polyamines on a Durrum D-500 amino acid analyzer.

RBC putrescine levels = assay: RBC putrescine in tumor-bearing and non tumor-bearing rats infused with feeding solutions (Table V); settings: vs chow or essential amino acids only
Description: Another experiment which utilized formulations containing amino acid precursors of RBC polyamines, compared the response of tumor-bearing rats (TB) to non tumor-bearing rats (NTB). The study was performed basically in the manner described above with the following indicated differences. […] Chow rats (C) were fed chow with no i.v. infusion.
Where N is the number of rats included in the study, PUT is RBC levels (nm/g/ml, means±SD) of putrescine determined by HPLC.

[5] = system: DFMO-induced thrombocytopenia; assay: Influence of ornithine co-administration on DFMO-induced thrombocytopenia in the rat (Table VI); settings: 12 days continuous infusion

## NCCCC(N)(C(=O)O)C(F)F (centres unmarked) [DFMO, Difluoromethylornithine]
[1]; 12 day study
  clinical toxicity: no significant clinical toxicity
[1]; rat, in vivo
  White cell count and hematocrit changes: not significantly altered
Tumor putrescine levels; DFMO infusion, rat-tumor model
  decrease in tumor putrescine levels: 90%
Tumor putrescine levels; rat, in vivo
  peripheral platelet counts: without suppressing peripheral platelet counts
[2]
  Platelets: 409 ± 127 × 10^3 /cu. mm
  platelet suppression / change in platelet count: significant decrease in platelet count as compared with the saline treatment
[3]
  White cell count: not affected by either dose
  decreased hearing acuity (patients): two patients
  hematocrit: Significant suppression of the hematocrit
  nausea, vomiting or diarrhea: no incidence
  platelet suppression: platelet suppression is the major limiting host toxicity
  platelet suppression, 8 g compared with 6 g dose: significantly greater platelet suppression at the 8 g dose
MCA sarcoma; MCA sarcoma
  tumor regression: does not produce tumor regression
MCA sarcoma; in vivo
  growth rate of an MCA sarcoma: reduces the growth rate

## N=C(N)NCCC[C@H](N)C(=O)O [arginine]
[4]
  blood polyamine levels: has not produced elevated blood polyamine levels
RBC putrescine levels
  increase in RBC putrescine levels in NTB rats: significantly greater (p<0.05)

## NCCC[C@H](N)C(=O)O [ornithine]
[5]
  platelet suppression / change in platelet count: blocked platelet suppression; also recorded: significant reversal in the platelet suppression

— US5189025A, “Methods for the treatment of malignant disease in patients using citrulline containing amino acid solutions” (priority 1990, dated 1993)
